# Results reported in patent US20240269157A1, “COMPOSITIONS AND METHODS FOR OVERCOMING MICROENVIRONMENT-MEDIATED RESISTANCE VIA E-SELECTIN TARGETING” (GLYCOMIMETICS, INC., priority 2021, published 2024).
# Columns and labels:
# [1] = system: HUVECs co-cultured with AML cells; test: eNOS phosphorylation in HUVECs co-cultured with AML cells; assay type: cell-based; set-up: dose or concentration left out as unconfirmed
# luc-MV4.11 cells = test: MV4.11 AML model survival; assay type: in vivo, NSG mice; conditions: 40 mg/kg Compound A i.p., 100 mg/kg venetoclax oral, 14 days once daily
# Protocol: To evaluate the efficacy of targeting E-selectin with Compound A in combination with venetoclax, an in vivo MV4.11 AML model was employed (FIG. 16).
# luc-MV4.11 cells (5×10^6 cells/mouse) were transplanted into NSG mice. Mice were divided into four groups: vehicle treatment only; 40 mg/kg of Compound A (intraperitoneal, 14 day once daily); 100 mg/kg venetoclax (oral, 14 days once daily), and a combination of 40 mg/kg Compound A and 100 mg/kg venetoclax. Drug treatment was initiated on day 10 post-transplantation.
# KG1 cells [2] = test: Real time qPCR of mRNAs encoding glycosyltransferases in KG1 cells; assay type: cell-based, human; set-up: key to AVG ΔCt (Ct(GOI) − Ave Ct (HKG)) Test Sample: Ct of gene of interest minus average housekeeping-gene Ct; key to Fold Change Test Sample/Control Sample: ratio of 2^(−ΔCt) treated / 2^(−ΔCt) control; conditions: KG1, 100 nM 5-AZA, 96 hours
# Protocol: To address the hypothesis that hypomethylation led to enhanced expression of glycosyltransferases, KG1 cells were cultured in the presence or absence of 100 nM 5-AZA for 96 hours followed by real time qPCR analysis of mRNAs encoding relevant glycosyltransferases. Fresh 5-AZA was added to the culture daily. Approximately 1×10^6 cells were pelleted by centrifugation at 250×g for 10 minutes then snap frozen on dry ice. Total RNA was extracted and purified using a QIAGEN RNeasy® Kit with an on-column DNase treatment step (QIAGEN Cat. No. 74104). The fold-change (2^(−Delta Ct)) is the normalized gene expression (2^(−Delta Ct)) in the 5-AZA treated sample divided the normalized gene expression (2^(−Delta Ct)) in the control sample.
# In Table 1, fold-regulation represents fold-change results in a biologically meaningful way. Fold-change values greater than one indicate a positive- or an up-regulation, and the fold-regulation is equal to the fold-change. Fold-change values less than one indicate a negative or down-regulation, and the fold-regulation is the negative inverse of the fold-change. Additionally, p-values in Table 1 were calculated based on a Student's t-test of the replicate 2^(−Delta Ct) values for each gene in the control group and treatment groups.
# FUT7 promoter = test: Targeted Next-Gen bisulfite sequencing of the FUT7 promoter region in KG1 cells; assay type: cell-based, human; conditions: dose and time dependent
# Protocol: To test whether the increased expression of FUT7 mRNA in KG1 cells treated with 5-AZA could be due to hypomethylation of the FUT7 promoter, targeted Next-Gen bisulfite sequencing of the FUT7 promoter region was performed. The methylation status of 101 CpG sites surrounding the transcription start site was determined. […] Cells were collected after 96 hours of treatment and cell pellets were prepared. Extracted DNA samples (500 ng) were bisulfite modified using the EZ-96 DNA Methylation-Direct Kit™ (ZymoResearch; Irvine, CA; Catalog No. D5023) per the manufacturer's protocol with minor modification. The bisulfite modified DNA samples were eluted using M-elution buffer in 46 μL. Following DNA extraction and bisulfite modification, 26 regions surrounding the transcription start site were evaluated by PCR/NGS to assess the methylation status of 101 CpG sites. All bisulfite modified DNA samples were amplified using separate multiplex or simplex PCRs. PCRs included 0.5 units of HotStarTaq (Qiagen; Hilden, Germany; Catalog No. 203205), 0.2 μM primers, and 3 μL of bisulfite-treated DNA in a 20 μL reaction.
# KG1 cells [3] = test: Global DNA methylation (5-mC) ELISA in KG1 cells; conditions: 100 nM 5-AZA, 96 hours (untreated 0.33%)
# Protocol: Prior to assessing the effect of 5-AZA on specific gene expression, its effect on global DNA methylation was assessed by specifically measuring levels of 5-methylcytosine (5-mC) in a colorimetric ELISA-like reaction. DNA was isolated from cell pellets using a DNA Isolation Kit for Cells and Tissues (Roche Catalog No. 11 814 770 001). DNA was quantified using a DNA Quantification Assay Kit (BioVision Catalog No. K539-200). Global DNA methylation was measured using the MethylFlash™ Global DNA Methylation (5-mC) ELISA Easy Kit (EpiGentek Catalog No. P-1030).
# DNA was isolated and purified from cell pellets and evaluated for 5-mC levels.
structure (smiles),measurement,setting,value
CCC1CC(C(=O)NCCNC(=O)CCOCCOCCOCCOCCOCCOCCOCCOCCOCCOCCOCCOC)C[C@@H](O[C@@H]2OC(CO)[C@H](O)C(O[C@@H](CC3CCCCC3)C(=O)O)C2NC(C)=O)[C@@H]1OC1O[C@@H](C)[C@H](O)C(O)[C@@H]1O (some centres unmarked) [Compound A],phosphorylation of the enzyme eNOS,[1],attenuated
same,median survival time (MST),luc-MV4.11 cells,39 days
Nc1ncn([C@@H]2O[C@H](CO)[C@@H](O)[C@H]2O)c(=O)n1 [5-azacitidine],2^-ΔCt Test Sample,KG1 cells [2]; ACTB,5.5E−01
same,AVG ΔCt (Ct(GOI) − Ave Ct (HKG)) Test Sample,KG1 cells [2]; ACTB,0.87
same,Fold Change Test Sample/Control Sample,KG1 cells [2]; ACTB,0.58
same,Fold Up- or Down-Regulation Test Sample/Control Sample,KG1 cells [2]; ACTB,−1.73
same,2^-ΔCt Test Sample,KG1 cells [2]; B3GNT5,2.3E−03
same,AVG ΔCt (Ct(GOI) − Ave Ct (HKG)) Test Sample,KG1 cells [2]; B3GNT5,8.74
same,Fold Change Test Sample/Control Sample,KG1 cells [2]; B3GNT5,2.36
same,Fold Up- or Down-Regulation Test Sample/Control Sample,KG1 cells [2]; B3GNT5,2.36
same,2^-ΔCt Test Sample,KG1 cells [2]; CDKN1C,6.1E−04
same,AVG ΔCt (Ct(GOI) − Ave Ct (HKG)) Test Sample,KG1 cells [2]; CDKN1C,10.69
same,Fold Change Test Sample/Control Sample,KG1 cells [2]; CDKN1C,1.24
same,Fold Up- or Down-Regulation Test Sample/Control Sample,KG1 cells [2]; CDKN1C,1.24
same,2^-ΔCt Test Sample,KG1 cells [2]; FUT3,3.3E−05
same,AVG ΔCt (Ct(GOI) − Ave Ct (HKG)) Test Sample,KG1 cells [2]; FUT3,14.89
same,Fold Change Test Sample/Control Sample,KG1 cells [2]; FUT3,1.42
same,Fold Up- or Down-Regulation Test Sample/Control Sample,KG1 cells [2]; FUT3,1.42
same,2^-ΔCt Test Sample,KG1 cells [2]; FUT4,3.6E−05
same,AVG ΔCt (Ct(GOI) − Ave Ct (HKG)) Test Sample,KG1 cells [2]; FUT4,14.78
same,Fold Change Test Sample/Control Sample,KG1 cells [2]; FUT4,0.98
same,Fold Up- or Down-Regulation Test Sample/Control Sample,KG1 cells [2]; FUT4,−1.02
same,2^-ΔCt Test Sample,KG1 cells [2]; FUT5,3.3E−05
same,AVG ΔCt (Ct(GOI) − Ave Ct (HKG)) Test Sample,KG1 cells [2]; FUT5,14.89
same,Fold Change Test Sample/Control Sample,KG1 cells [2]; FUT5,1.03
same,Fold Up- or Down-Regulation Test Sample/Control Sample,KG1 cells [2]; FUT5,1.03
same,2^-ΔCt Test Sample,KG1 cells [2]; FUT6,9.3E−05
same,AVG ΔCt (Ct(GOI) − Ave Ct (HKG)) Test Sample,KG1 cells [2]; FUT6,13.39
same,Fold Change Test Sample/Control Sample,KG1 cells [2]; FUT6,3.27
same,Fold Up- or Down-Regulation Test Sample/Control Sample,KG1 cells [2]; FUT6,3.27
same,2^-ΔCt Test Sample,KG1 cells [2]; FUT7,3.0E−04
same,AVG ΔCt (Ct(GOI) − Ave Ct (HKG)) Test Sample,KG1 cells [2]; FUT7,11.71
same,Fold Change Test Sample/Control Sample,KG1 cells [2]; FUT7,10.15
same,Fold Up- or Down-Regulation Test Sample/Control Sample,KG1 cells [2]; FUT7,10.15
same,2^-ΔCt Test Sample,KG1 cells [2]; FUT9,4.4E−05
same,AVG ΔCt (Ct(GOI) − Ave Ct (HKG)) Test Sample,KG1 cells [2]; FUT9,14.46
same,Fold Change Test Sample/Control Sample,KG1 cells [2]; FUT9,1.92
same,Fold Up- or Down-Regulation Test Sample/Control Sample,KG1 cells [2]; FUT9,1.92
same,2^-ΔCt Test Sample,KG1 cells [2]; GAPDH,1.8E+00
same,AVG ΔCt (Ct(GOI) − Ave Ct (HKG)) Test Sample,KG1 cells [2]; GAPDH,−0.87
same,Fold Change Test Sample/Control Sample,KG1 cells [2]; GAPDH,1.73
same,Fold Up- or Down-Regulation Test Sample/Control Sample,KG1 cells [2]; GAPDH,1.73
same,2^-ΔCt Test Sample,KG1 cells [2]; ST3GAL3,5.0E−04
same,AVG ΔCt (Ct(GOI) − Ave Ct (HKG)) Test Sample,KG1 cells [2]; ST3GAL3,10.95
same,Fold Change Test Sample/Control Sample,KG1 cells [2]; ST3GAL3,1.07
same,Fold Up- or Down-Regulation Test Sample/Control Sample,KG1 cells [2]; ST3GAL3,1.07
same,2^-ΔCt Test Sample,KG1 cells [2]; ST3GAL4,6.9E−03
same,AVG ΔCt (Ct(GOI) − Ave Ct (HKG)) Test Sample,KG1 cells [2]; ST3GAL4,7.17
same,Fold Change Test Sample/Control Sample,KG1 cells [2]; ST3GAL4,2.78
same,Fold Up- or Down-Regulation Test Sample/Control Sample,KG1 cells [2]; ST3GAL4,2.78
same,2^-ΔCt Test Sample,KG1 cells [2]; ST3GAL6,2.0E−02
same,AVG ΔCt (Ct(GOI) − Ave Ct (HKG)) Test Sample,KG1 cells [2]; ST3GAL6,5.66
same,Fold Change Test Sample/Control Sample,KG1 cells [2]; ST3GAL6,2.55
same,Fold Up- or Down-Regulation Test Sample/Control Sample,KG1 cells [2]; ST3GAL6,2.55
same,methylation of CpG sites of the FUT7 promoter region,FUT7 promoter,demethylation
same,level of 5-mC,KG1 cells [3],0.12%
